We go through three molecules from patent publication US10626118B2, “Pyrrolopyrimidine crystal for preparing JAK inhibitor” (Chia Tai Tianqing Pharmaceutical Group Co., Ltd., priority 2016, dated 2020).

Each structure is given as a SMILES string. Like-named read-outs stand apart in the source and are kept apart here.

The nature of series [1]: Stability test, open clean container at 60° C. The format is physicochemical. The protocol: The crystal A obtained in Method 1 of Example 2 and the crystal B obtained in Example 3 were placed in an open clean container at 60° C., and sampled for detection on days 5 and 10, respectively.
The conditions of series [2]: rats, 30 mg/kg PO; FDA pharmacology review; cited from earlier work.
The conditions of series [3]: dogs, Male, FDA pharmacology review, cited from earlier work.

Turning to `N#CC[C@H](C1CCCC1)n1cc(-c2ncnc3[nH]ccc23)c(N)n1` [Crystal A of compound represented by formula I] [(3R)-3-[3-amino-4-(7H-pyrrolo[2,3-d]pyrimidin-4-yl)-1H-pyrazol-1-yl]-3-cyclopentyl-propionitrile], the “Content (%)” value is given as 99.72% in series [1] (Day 0), 99.71% in series [1] (Day 5) and 99.73% in series [1] (Day 10). Further, the “Total Impurity (%)” value in series [1] (Day 0) is reported as 0.28%; in series [1] (Day 5) it was 0.29%; in series [1] (Day 10), 0.27%.
Turning to `N#CC[C@H](C1CCCC1)n1cc(-c2ncnc3[nH]ccc23)c(N)n1` [Crystal B of compound represented by formula I] [(3R)-3-[3-amino-4-(7H-pyrrolo[2,3-d]pyrimidin-4-yl)-1H-pyrazol-1-yl]-3-cyclopentyl-propionitrile], the “Content (%)” value is on record as 99.23% in series [1] (Day 0), 99.23% in series [1] (Day 5) and 99.22% in series [1] (Day 10). The “Total Impurity (%)” value in series [1] (Day 0) came to 0.77%; in series [1] (Day 5), 0.77%; in series [1] (Day 10), 0.78%.
Regarding `N#CC[C@H](C1CCCC1)n1cc(-c2ncnc3[nH]ccc23)cn1` [Ruxolitinib], the AUCINFobs in series [2] is 1345 ng·h/mL. Also, the AUCINF_obs in series [3] (IV 5 mg/kg) is 13776 ng·h/mL; in series [3] (PO 10 mg/kg), 15716 ng·h/mL.
